B1: BDNF: Brain-derived neurotrophic factor, used as a positive control (protein, UniProt P23560 19-247, looked up)
Neurotrophic factor BDNF …: APMKEANIRGQGGLAYPGVRTHGTLESVNGPKAGSRGLTSLADTFEHVIEELLDEDQKVRPNEENNKDADLYTSRVMLSSQVPLEPPLLFLLEEYKNYLDAANMSMRVRRHSDPARRGELSVCDSISEWVTAADKKTAVDMSGGTVTVLEKVPVSKGQLKQYFYETKCNPMGYTKEGCRGIDKRHWNSQCRTTQSYVRALTMDSKKRIGWRFIRIDTSCVCTLTIKRGR

Assays:
Format in all cases: cell-based
[1] = test system: Rat dopaminergic neurons (mesencephalic culture); test: TH neurons survival test after 48 h 6-OHDA injury on dopaminergic neurons; conditions: for In vitro 6OHDA resistance: TH neurons survival after 48 h 6-OHDA (20 μM) injury
Procedure: Rat dopaminergic neurons were cultured as described by Schinelli et al. (1988). Pregnant female rats of 15 days gestation were killed by cervical dislocation (Rats Wistar; Janvier) and the foetuses removed from the uterus. The embryonic midbrains were removed and placed in ice-cold medium of Leibovitz (L15; PanBiotech) containing 2% of Penicillin-Streptomycin (PS; PanBiotech) and 1% of bovine serum albumin (BSA; PanBiotech). Only the ventral portions of the mesencephalic flexure were used for the cell preparations as this is the region of the developing brain rich in dopaminergic neurons. The midbrains were dissociated by trypsinisation for 20 min at 37° C. (Trypsin EDTA 1×; PanBiotech). The reaction is stopped by the addition of Dulbecco's modified Eagle's medium (DMEM; PanBiotech) containing DNAase I grade II (0.1 mg/ml; PanBiotech) and 10% of foetal calf serum (FCS; Invitrogen). Cells were then mechanically dissociated by 3 passages through a 10 ml pipette and centrifuged at 180×g for 10 min at +4° C. on a layer of BSA (3.5%) in L15 medium. The supernatant was discarded and the cells of pellet were re-suspended in a defined culture medium consisting of Neurobasal (Invitrogen) supplemented with B27 (2%; Invitrogen), L-glutamine (2 mM; PanBiotech) and 2% of PS solution and 10 ng/ml of Brain-derived neurotrophic factor (BDNF, PanBiotech) and 1 ng/ml of Glial-Derived Neurotrophic Factor (GDNF, PanBiotech). Viable cells were counted in a Neubauer cytometer using the trypan blue exclusion test. The cells were seeded at a density of 40 000 cells/well in 96 well-plates (pre-coated with poly-L-lysine (Greiner)) and are cultured at 37° C. in a humidified air (95%)/CO2 (5%) atmosphere. Half of the medium was changed every 2 days with fresh medium. Five to six percents of the neuronal cell population were dopaminergic neurons. […]
Data are expressed in percentage of control conditions (no intoxication, no 6OHDA=100%) in order to express the 6OHDA injury. All values are expressed as mean+/−SEM (s.e. mean) of the 3 cultures (n=6 wells per condition per culture). […]

Rat cortical neurons [2] = test: Cytoplasmic cytochrome C (CytoC) assay in human amyloid-β1-42 intoxicated cortical neurons; design: key: − and −− intensity of lowering effect of compositions; − and −− intensity of lowering effect of compositions; conditions: Aβ1-42 1.25 μM 4 hours; lowering effect
Procedure: (§1) Rat cortical neurons were cultured as described by Singer et al., 1999 [28]. Briefly pregnant female rats of 15 days gestation were killed by cervical dislocation (Rats Wistar) and the fetuses were removed from the uterus. The cortex were removed and placed in ice-cold medium of Leibovitz (L15) containing 2% of Penicillin 10.000 U/ml and Streptomycin 10 mg/ml and 1% of bovine serum albumin (BSA). Cortex were dissociated by trypsin (0.05%) for 20 min at 37° C. The reaction was stopped by the addition of Dulbecco's modified Eagle's medium (DMEM) containing DNase1 grade II (0.1 mg/mL) and 10% of fetal calf serum (FCS). Cells were then mechanically dissociated by 3 serial passages through a 10 ml pipette. Cells were then centrifuged at 515×g for 10 min at 10° C. The supernatant was discarded and the pellet of cells will be re-suspended in a defined culture medium consisting of Neurobasal supplemented with B27 (2%), L-glutamine (0.2 mM), 2% of PS solution and 10 ng/mL of BDNF. Viable cells were counted in a Neubauer cytometer using the trypan blue exclusion test. […]
(§2) Data are expressed in percentage of control conditions (no intoxication, no amyloid=100%) in order to express the amyloid injury. All values are expressed as mean+/−SEM (s.e. mean) of the 3 cultures (n=6 wells per condition). […]

Rat cortical neurons [3] = test: MetO assay (oxidative stress) in human amyloid-β1-42 intoxicated cortical neurons; design: key: − and −− intensity of lowering effect of compositions; − and −− intensity of lowering effect of compositions; conditions: Aβ1-42 1.25 μM 4 hours; lowering effect
Procedure: as §1, §2

Row | Molecule | In vitro 6OHDA resistance [1] | In vitro CytC level (Rat cortical neurons [2]) | In vitro MetO level (Rat cortical neurons [3]) | protection of dopaminergic neurons from 6-OHDA injury ([1]; 1 hour pre-treatment at 1.85 nM, positive control)
1 | CC(=O)NCCCS(=O)(=O)O [Acamprosate] | improvement | − | − | 
2 | NCC(CC(=O)O)c1ccc(Cl)cc1 (stereo not shown) [Baclofen] | improvement | − | − | 
3 | B1 |  |  |  | significantly protected
